From the NIST ThermoML archive (doi:10.1016/j.fluid.2014.05.043)

Experiment: mn = molality of the nth substance listed, in mol/kg
Settings: 101 kPa, Liquid; for molar conductivity: 293 K, Direct current cell with electrodes; for mass density: Vibrating tube method

CCCCCCCCCCCCCCCCCC(=O)O.NCCO [2-hydroxyethylammonium stearate] + O
Settings	molar conductivity [S·m2/mol]
m1 = 2.77e-05	0.0501
m1 = 2.83e-05	0.0488
m1 = 2.89e-05	0.0477
m1 = 2.96e-05	0.0464
m1 = 3.03e-05	0.0452
m1 = 3.1e-05	0.044
m1 = 3.18e-05	0.0428
m1 = 3.26e-05	0.0415
m1 = 3.34e-05	0.0403
m1 = 3.43e-05	0.0392
m1 = 3.52e-05	0.0383
m1 = 3.61e-05	0.0371
m1 = 3.71e-05	0.0362
m1 = 3.82e-05	0.0347
m1 = 3.93e-05	0.0336
m1 = 4.05e-05	0.0323
m1 = 4.17e-05	0.0311
m1 = 4.31e-05	0.0297
m1 = 4.45e-05	0.0283
m1 = 4.6e-05	0.0271
m1 = 4.76e-05	0.0256
m1 = 4.94e-05	0.0241
m1 = 5.13e-05	0.0227
m1 = 5.33e-05	0.0214
m1 = 5.56e-05	0.0204
m1 = 5.81e-05	0.0194
m1 = 6.09e-05	0.0183
m1 = 6.38e-05	0.0172
m1 = 6.7e-05	0.0163
m1 = 7.07e-05	0.0153
m1 = 7.45e-05	0.0143

mass density [kg/m3]
Settings	m1 = 5.8e-06	m1 = 1.15e-05	m1 = 1.73e-05	m1 = 2.31e-05	m1 = 2.89e-05
298.15 K	996	994.86	997.03	996.95	997.02
303.15 K	994.49	995.63	995.65	995.35	995.6
308.15 K	990.78	994.03	993.99	993.62	993.99

O [water] + CCCCCCCCCCCCCCCCCC(=O)O.NCCO
m2 = 0
Settings	mass density [kg/m3]
298.15 K	996.06
303.15 K	994.67
308.15 K	993.01
